Results published in patent US20170367338A1, “COMPOSITIONS AND METHODS FOR IMPROVING AGRONOMIC CHARACTERISTICS OF PLANTS” (MONSANTO TECHNOLOGY LLC, priority 2014, published 2017).
Values after ≈ are worked out from the molar mass of the structure shown. Where two headings read alike, the source gives them in different places.

Key:
root knot nematode (RKN) = assay: RKN greenhouse soil assay on cucumber plants; type: in vivo; details: Radex emulsifiable concentrate formulation (6.25% active ingredient)
Meloidogyne incognita [1] = assay: M. incognita miniaturized greenhouse assay on cucumber seedlings; type: in vivo; details: 1 ppm; Table 1C test a
In short: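 Compound in acetone/Triton X100 diluted into water with 0.015% Triton X100, applied to sand vials holding 3-day cucumber sprouts; 500 M. incognita eggs inoculated two days after planting. Roots rated 10–12 days post-inoculation for % galling (0–3 scale, triplicate mean) plus visual root-stunting phytotoxicity.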

[2] = system: Heterodera glycines (SCN); assay: Seed treatment test of soybean cyst nematode on soybean; type: in vivo; details: Heterodera glycines, 672 h, test a, read-out: percent cyst reduction relative to control blank treatment
In short: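 Seeds (1 g cucumber for RKN, soybean for SCN) coated with compound in 500 ul acetone, air-dried, sown in sandy soil. Pots inoculated 3 days later with 1000 eggs per pot. Galling rated 14 days (RKN) or 28 days (SCN) after inoculation.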

[3] = type: in vivo; details: three female mice, observed up to 14 days
Protocol: Acute oral toxicity testing was performed in mice in accordance with test method P203.UDP, as administered by Eurofins/Product Safety Laboratories (Dayton, New Jersey). CD-1/Swiss derived albino mice were obtained and group housed in suspended solid bottom caging. The mice were fed rodent chow and filtered tap water was supplied ad libitum. Following acclimation to the laboratory setting, a group of animals was fasted overnight by removing food from the cages. After the fasting period, three female mice were selected based on vitality and initial body weights. The individual compound doses were calculated from these body weights.
The test substance was prepared as a 1% (50 mg/kg) or 5% (500 mg/kg) weight to weight (w/w) mixture in a 0.5% w/w solution of carboxymethylcellulose (CMC) in distilled water. A tissue homogenizer was used to create a homogeneous mixture. A dose of 50 or 500 mg/kg was administered to three healthy mice per dose level by oral intubation using a ball-tipped gavage needle attached to a syringe. After administration, the animals were returned to their cages, and feed was replaced immediately after dosing.
Body weights were recorded prior to initiation and on Days 7 and 14 or a soon as possible after death.

[4] = system: Caenorhabditis elegans ced-3(n717) and ced-4(N1162) mutants; assay: Susceptibility of C. elegans apoptosis mutants on NGM agar plates; type: in vivo; details: 10μg/ml on NGM agar plates
C. elegans = assay: Three day C. elegans well assay; type: in vivo; details: Caenorhabditis elegans
In short: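 Contact assay in wells: DMSO dilutions (4 ul from 100× stocks at 10 mg/ml) with bacterial feed in M9 buffer plus ampicillin and nystatin. L1 (starvation-arrested) or L4 worms added, shaken at 20° C. Scored at 4, 24, 48 and 72 hours.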

Meloidogyne incognita [5] = assay: Summer field evaluation of pre-plant incorporated compounds on squash; type: in vivo; details: 4 kg/ha
In short: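 Compound in acetone/Triton X-100 emulsion mixed into sand/silt loam with galled tomato roots, filling top 15 cm of field plots (pre-plant incorporated), 6 replicates. Plots inoculated with 100k M. incognita eggs/larvae at 5 cm depth. Squash cv. Liberator III transplanted 4 days after treatment.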

For `c1ccc(-c2noc(-c3cccs3)n2)cc1` [compound 1822], the “percent control (galling reduction), Radex 1 mg/kg” value (root knot nematode (RKN)) was 98%, the “1 ppm gall rating” value (Meloidogyne incognita [1]) was 0 (0=0-5%) and the pest or weed control at 0.375 mg/g ([2]; 0.375 mg ai/gram seed) was 58%. For the same molecule, the pest or weed control at 1.5 mg/g ([2]; 1.5 mg ai/gram seed) was 70%, the “acute oral toxicity: mortality and signs” value ([3]; 50 mg/kg oral) was “all animals survived” and the “acute oral toxicity: mortality and signs” value ([3]; 500 mg/kg oral) was “all animals died within three days”.
With `Cc1cc(Cl)ccc1-c1noc(-c2ccco2)n1` [compound 5823] the “susceptibility of ced-3 and ced-4 mutants versus wild-type C. elegans (N2 Bristol), including time to mortality” value [4] was “No observable phenotypic difference in susceptibility”, the EC50 (C. elegans; 24 h, L1 larvae, one day of exposure, read-out: EC50 L1 1D) was 0.4 µg/mL (≈ 1.53 µM) and the EC50 (C. elegans; 24 h, L4 larvae, one day of exposure, read-out: EC50 L4 1D) was 1.6 µg/mL (≈ 6.14 µM). The EC50 (C. elegans; 48 h, L1 larvae, two days of exposure, read-out: EC50 L1 2D) was 0.4 µg/mL (≈ 1.53 µM), the EC50 (C. elegans; 48 h, L4 larvae, two days of exposure, read-out: EC50 L4 2D) was 0.4 µg/mL (≈ 1.53 µM) and the EC50 (C. elegans; 72 h, L1 larvae, three days of exposure, read-out: EC50 L1 3D) was 0.4 µg/mL (≈ 1.53 µM). For the same molecule, the EC50 (C. elegans; 72 h, L4 larvae, three days, effects on the second generation larvae, read-out: EC50 L4 3D (F1)) was 0.4 µg/mL (≈ 1.53 µM) and the “control of M. incognita by PPI application” value (Meloidogyne incognita [5]) was “excellent control”.
